This assay relates to human 20S proteasome (α-synuclein substrate). Kind of assay: α-Synuclein degradation by h20S (SDS-PAGE). In kind it is biochemical. The following applies: 10 μM modulator, 37 °C, 1.5 h; h20S alone = 100%. Here is the method:
The effectiveness of the compounds has also been examined by using proteins as substrates. By means of SDS-PAGE electrophoresis, we checked the extent to which model proteins were digested by the 20S proteasome alone and after its stimulation by 10 μM modulators. […] After incubation with the enzyme in the presence of each modulator, less than 40% of synuclein remained. […] The experiment was performed as it was described.[36] Briefly, α-synuclein (rPeptide, […], USA) and Tau-441 (Novus Biologicals, Centennial, CO, USA) were dissolved in 20 mM HEPES buffer (pH 7.4) and mixed with a human 20S proteasome. Samples were incubated at 37 °C for 1.5 h, after which the reaction was terminated by adding 4× Laemmli buffer. The levels of undigested proteins were evaluated by SDS-PAGE. The band intensities of proteins incubated with […] in the presence of a modulator were compared to those of proteins incubated with the enzyme alone, which were set as 100%. Three independent experiments were performed for each protein. The results are presented as the means ± SD. One-way ANOVA with Tukey's post-hoc test was used to determine statistical significance.

The values below come from article PMC12035797, “Peptidomimetics Activating the Proteasome: A New Perspective for Parkinson’s Treatment” (Journal of Medicinal Chemistry, 2025).

Consider `C[C@@H](O)[C@H](NC(=O)[C@H](Cc1ccccc1)NC(=O)[C@H](Cc1ccc(O)cc1)NC(=O)CN(CCCCN)C(=O)[C@H](CCCNC(=N)N)NC(=O)[C@H](CCCNC(=N)N)NC(=O)[C@H](CCCNC(=N)N)NC(=O)[C@H](CCC(N)=O)NC(=O)[C@H](CCCNC(=N)N)NC(=O)[C@H](CCCNC(=N)N)NC(=O)[C@H](CCCCN)NC(=O)[C@H](CCCCN)NC(=O)[C@@H](N)CCCNC(=N)N)C(=O)NCC(=O)N[C@@H](CO)C(=O)N[C@@H](CCCCN)C(=O)N[C@@H](CC(=O)O)C(=O)N[C@@H](Cc1c[nH]c2ccccc12)C(=O)N[C@@H](CCCNC(=N)N)C(=O)N[C@@H](CO)C(=O)N[C@@H](Cc1ccc(O)cc1)C(=O)N[C@@H](Cc1ccc(O)cc1)C(=O)N[C@@H](CO)C(=O)O` [1f], for which the “α-synuclein remaining after incubation with h20S” value is on record as “less than 40%”.
